Data from PMC3792051, “Polyenylpyrrole Derivatives Inhibit NLRP3 Inflammasome Activation and Inflammatory Mediator Expression by Reducing Reactive Oxygen Species Production and Mitogen-Activated Protein Kinase Activation” (PLoS ONE, 2013).

How the values were obtained:
[1] = system: LPS-activated RAW 264.7 macrophages; assay: Intracellular ROS production (DCF fluorescence), LPS-induced; type: cell-based, murine; details: RAW 264.7, 30 min pretreatment; compound 1h 20 µM, NAC 10 mM
Procedure: Intracellular ROS production was measured by detecting the fluorescence intensity of the 2’, 7’-dichlorofluorescein, the oxidation product of 2’, 7’-dichlorofluorescein diacetate (Molecular Probes, Eugene, OR). In one study, RAW 264.7 macrophages (5 × 10^5/ml; 0.1 ml) were incubated with vehicle, compound 1h (20 µM), or NAC (10 mM) for 30 min, then 2’, 7’-dichlorofluorescein diacetate (2 µM) was added for 30 min, then LPS was added for the indicated time. In another, J774A.1 macrophages (5 × 10^5/ml; 0.1 ml) were incubated with LPS (1 µg/ml) for 6 h, then vehicle, compound 1h (20 µM), or DPI (25 µM) was added for 30 min. 2’, 7’-dichlorofluorescein diacetate (2 µM) was then added for 30 min before incubation with ATP (5 mM) for the indicated time; while, in another, the order of addition of compound1h/DPI and LPS was reversed. The fluorescence intensity of 2’, 7’-dichlorofluorescein was detected at an excitation wavelength of 485 nm and an emission wavelength of 530 nm on a microplate absorbance reader (Bio-Rad Laboratories, Inc).
To test whether compound 1h exerted its anti-inflammatory effect on LPS-activated cells by downregulation of ROS production, intracellular ROS production in LPS-activated RAW 264.7 macrophages was measured.
Figure 5 Effect of compound 1h on ROS production and MAPK phosphorylation in LPS-activated macrophages. […]

[2] = system: RAW-Blue cells (RAW 264.7 with NF-κB reporter gene); assay: NF-κB reporter assay (SEAP, QUANTI-Blue); type: cell-based, murine; details: 2.5-40 µM 30 min, LPS 1 µg/ml 24 h
Procedure: RAW-Blue™ cells, RAW 264.7 macrophages stably expressing the gene for secreted embryonic alkaline phosphatase (SEAP) inducible by NF-κB, were seeded in 60 mm dishes at a density of 5 × 10^5 cells/ml (1 ml) and grown overnight in a 5% CO2 incubator at 37 °C. They were then pretreated with vehicle or compound 1h for 30 min, then LPS (1 µg/ml) was added and incubation continued for 24 h. The medium was then harvested and 20 µl aliquots mixed with 200 µl of QUANTI-Blue™ medium (InvivoGen) in 96-well plates and incubated at 37 °C for 15 min, then SEAP activity was assessed by measuring the optical density at 655 nm using an ELISA reader.
Following LPS stimulation, IκB in the complex is phosphorylated by IκB kinase (IKK), ubiquitinated, and rapidly degraded in proteasomes, thus releasing NF-κB [30].
Figure 6 Effect of compound 1h on NF-κB activation in LPS-activated macrophages. (A) RAW 264.7 macrophages or (B) J774A.1 macrophages (both 5 × 10^5/ml; 1 ml) were incubated for 30 min with 10-40 µM compound 1h or DMSO, then LPS (1 µg/ml) was added and incubation continued for 20 min, then levels of phosphorylated and total IKK-α and IκB-α were measured by Western blotting. (C) RAW 264.7 macrophages or (D) J774A.1 macrophages (both 5 × 10^5/ml; 1 ml) were treated as in A and B, then nuclear translocation of NF-κB was analyzed by ELISA. […]

SMILES: O=c1cc(O)cc(/C=C/C=C/C=C/C=C/c2[nH]ccc2Cl)o1 [compound 1h]
- LPS-stimulated ROS production [1]: reduced LPS-stimulated ROS production
- NF-κB transcriptional activity (SEAP reporter) [2]: reduced
